Data taken from ChEMBL document CHEMBL2331328, “Synthetic approaches to DNMT inhibitor SGI-1027 and effects on the U937 leukemia cell line” (Bioorg Med Chem Lett, 2013).
Activity calls are given as the source filed them. No cut-off for these calls is given here.

Tests used:
U-937 [1] = experiment: Induction of apoptosis in human U937 cells assessed as accumulation at pre-G1 phase after 30 hrs by FACS analysis; assay type: functional, cell-based
U-937 [2] = experiment: Cell cycle arrest in human U937 cells at 5 to 50 uM after 30 hrs by FACS analysis; assay type: functional, cell-based
[3] = molecular target: DNA (cytosine-5)-methyltransferase 1 (Homo sapiens) (UniProt P26358); experiment: Inhibition of human DNMT1 using AdoMet and poly dI-dC at 50 uM after 2 hrs by radioactive assay
Chain of DNA (cytosine-5)-methyltransferase 1 (Homo sapiens) (P26358 whole entry): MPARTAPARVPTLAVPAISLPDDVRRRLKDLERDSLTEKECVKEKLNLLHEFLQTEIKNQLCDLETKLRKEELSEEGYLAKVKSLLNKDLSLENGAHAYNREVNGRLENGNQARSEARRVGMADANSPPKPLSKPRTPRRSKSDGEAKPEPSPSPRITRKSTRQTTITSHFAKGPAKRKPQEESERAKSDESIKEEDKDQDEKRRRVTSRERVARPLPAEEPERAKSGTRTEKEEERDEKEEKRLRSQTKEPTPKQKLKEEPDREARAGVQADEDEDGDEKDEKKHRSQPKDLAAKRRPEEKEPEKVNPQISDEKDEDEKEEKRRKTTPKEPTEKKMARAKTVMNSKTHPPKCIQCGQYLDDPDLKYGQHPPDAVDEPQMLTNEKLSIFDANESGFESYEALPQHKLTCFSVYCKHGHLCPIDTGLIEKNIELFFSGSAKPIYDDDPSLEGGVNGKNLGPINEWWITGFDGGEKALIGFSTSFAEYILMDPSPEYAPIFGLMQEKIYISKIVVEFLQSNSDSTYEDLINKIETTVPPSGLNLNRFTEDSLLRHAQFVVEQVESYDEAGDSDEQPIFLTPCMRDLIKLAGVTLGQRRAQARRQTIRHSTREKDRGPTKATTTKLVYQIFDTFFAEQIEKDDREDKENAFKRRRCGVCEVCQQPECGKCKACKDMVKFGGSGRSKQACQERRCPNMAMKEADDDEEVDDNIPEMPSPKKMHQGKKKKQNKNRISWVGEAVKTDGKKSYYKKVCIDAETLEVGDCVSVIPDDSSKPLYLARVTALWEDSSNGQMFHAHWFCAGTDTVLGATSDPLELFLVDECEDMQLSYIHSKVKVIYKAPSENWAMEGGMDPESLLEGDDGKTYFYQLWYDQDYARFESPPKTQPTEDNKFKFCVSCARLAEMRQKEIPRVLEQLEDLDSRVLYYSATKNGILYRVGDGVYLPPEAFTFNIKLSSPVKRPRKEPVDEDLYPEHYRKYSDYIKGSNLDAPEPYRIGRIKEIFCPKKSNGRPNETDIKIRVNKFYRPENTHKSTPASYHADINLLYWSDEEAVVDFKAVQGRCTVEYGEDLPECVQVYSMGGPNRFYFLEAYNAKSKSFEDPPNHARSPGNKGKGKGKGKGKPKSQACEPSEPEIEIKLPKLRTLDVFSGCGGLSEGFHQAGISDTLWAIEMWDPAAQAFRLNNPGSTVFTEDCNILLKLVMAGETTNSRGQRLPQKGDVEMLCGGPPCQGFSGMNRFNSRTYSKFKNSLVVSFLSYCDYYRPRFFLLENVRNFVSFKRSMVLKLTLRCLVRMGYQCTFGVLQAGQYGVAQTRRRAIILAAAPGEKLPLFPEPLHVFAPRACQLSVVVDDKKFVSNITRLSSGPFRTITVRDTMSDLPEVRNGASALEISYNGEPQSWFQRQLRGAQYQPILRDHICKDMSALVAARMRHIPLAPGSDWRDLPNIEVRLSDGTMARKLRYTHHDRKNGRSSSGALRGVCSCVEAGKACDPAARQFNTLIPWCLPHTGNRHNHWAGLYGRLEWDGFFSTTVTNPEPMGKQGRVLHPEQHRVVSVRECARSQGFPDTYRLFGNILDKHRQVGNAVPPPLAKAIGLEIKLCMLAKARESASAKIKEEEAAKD

| inhibition [3] | Structure (SMILES) | Activity (U-937 [1]) | Activity (U-937 [2]) |
| --- | --- | --- | --- |
| Active | Cc1cc(Nc2ccc(NC(=O)c3ccc(Nc4ccnc5ccccc45)cc3)cc2)nc(N)n1 | Dose-dependent effect | inactive |
| Active | O=C(O)[C@H](Cc1c[nH]c2ccccc12)N1C(=O)c2ccccc2C1=O |  |  |
